# Target: T1, glucocerebrosidase (Homo sapiens, UniProt P04062)
# T1 sequence (P04062 40-536): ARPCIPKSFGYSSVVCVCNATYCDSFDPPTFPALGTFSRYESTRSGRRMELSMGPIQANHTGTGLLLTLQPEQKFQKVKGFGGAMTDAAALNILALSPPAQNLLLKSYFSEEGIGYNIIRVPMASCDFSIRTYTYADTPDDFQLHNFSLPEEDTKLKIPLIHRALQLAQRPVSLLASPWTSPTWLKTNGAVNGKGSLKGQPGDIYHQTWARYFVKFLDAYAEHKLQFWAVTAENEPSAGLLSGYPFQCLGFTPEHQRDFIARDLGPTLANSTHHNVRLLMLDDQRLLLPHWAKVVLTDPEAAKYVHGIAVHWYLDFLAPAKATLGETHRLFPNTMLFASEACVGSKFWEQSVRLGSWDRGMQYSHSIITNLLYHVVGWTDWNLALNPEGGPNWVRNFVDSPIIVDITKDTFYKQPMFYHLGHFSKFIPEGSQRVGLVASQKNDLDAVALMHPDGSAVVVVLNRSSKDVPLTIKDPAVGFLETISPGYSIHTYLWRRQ
# Assay: Glucocerebrosidase activity assay with blue substrate (4MU-Glc)
# Assay type: biochemical
# Procedure: Example 2—Glucocerebrosidase Activity Assay with Blue Substrate
# The compounds in DMSO solution 0.5 μL/well were transferred to a black 96-well plate (the final titration was 24 nM to 50 μM, 12 concentrations, 2× dilution). 33.5 μL enzyme solution (7.5 nM final concentration) was transferred to the wells. After 5 min of incubation at room temperature, the enzyme reaction was initiated by the addition of 33 μL/well blue substrate. Final concentration of the blue substrate (4MU-Glc) was 1.5 mM. The blue substrate reaction was terminated by the addition of 33 μL/well stop solution (1 M NaOH and 1 M glycine mixture, pH 10) after 30 min of incubation at 37° C. The fluorescence was then measured in the Biotek Synergy H1 multi-mode plate reader with Ex=365 nm and Em=440 nm.
# Additional compounds were synthesized and tested for glucocerebrosidase modulatory activity as described in Example 1 and Example 2.
# [1] = Table 1, 7.5 nM enzyme, 1.5 mM 4MU-Glc, 30 min at 37° C.
# [2] = Table 1, 7.5 nM enzyme, 1.5 mM 4MU-Glc, 30 min at 37° C., titration 24 nM to 50 μM
# [3] = Table 2, additional compounds, tested as described in Example 2
Compound,Emax [1] [%],AC50 [2] [µM],AC50 [3] [µM],Emax [3] [%]
CN(CCOc1cccc(C(=O)O)c1)c1nc(-c2cccnc2)nc2ccccc12 [Compound 80],442,15.8,,
CN(CCOc1ccccc1)c1nc(-c2ccnc3ccccc23)nc2ccccc12 [Compound 81],280,3.16,,
CN(CC1Cc2ccccc2O1)c1nc(-c2cccnc2)nc2ccccc12 (stereo not drawn) [Compound 82],501,1.12,,
CN(CCOc1ccc(C(=O)ON2C(=O)CCC2=O)cc1)c1nc(-c2cccnc2)nc2ccccc12 [Compound 83],230,3.98,,
CN(CCOc1cccc(C(=O)ON2C(=O)CCC2=O)c1)c1nc(-c2cccnc2)nc2ccccc12 [Compound 84],457,4.47,,
CN(CCOc1ccccc1)c1cc(-c2cccnc2)nc(-c2cccnc2)n1 [Compound 85],460,2.24,,
CN(CCOc1cccc(CCO)c1)c1nc(-c2cccnc2)nc2ccccc12 [Compound 86],,15.8,,
Cn1ncc2c(NCC3CCc4ccccc4O3)nc(-c3cccnc3)nc21 (stereo not drawn) [Compound 87],173,10,,
CN(c1nc(-c2cccnc2)nc2c1cnn2C)C1CCCN(c2ccccc2)C1 (stereo not drawn) [Compound 88],142,5.01,,
CN(Cc1cc2ccccc2o1)c1nc(-c2cccnc2)nc2c1cnn2C [Compound 89],660,4.47,,
COC(=O)Cc1cccc(OCCN(C)c2nc(-c3cccnc3)nc3c2cnn3C)c1 [Compound 90],908,7.94,,
Cn1ncc2c(NCCOC3CCCCC3)nc(-c3cccnc3)nc21 [Compound 91],322,44.7,,
CN(CCOc1ccccc1)c1nc(-c2cccnc2)nc2c1ncn2C [Compound 92],790,35.5,,
CN(CCOc1ccccc1)c1nc(-c2cccnc2)nc2scnc12 [Compound 93],270,4.47,,
COC(=O)Cc1cccc(OCCN(C)c2nc(-c3cccnc3)nc3ncccc23)c1 [Compound 94],,14.1,,
COC(=O)Cc1cccc(OCCN(C)c2nc(-c3cccnc3)nc3ccccc23)c1 [Compound 95],721,4.47,,
CN(CCOc1cccc(CC(=O)ON2C(=O)CCC2=O)c1)c1nc(-c2cccnc2)nc2c1cnn2C [Compound 96],583,7.94,,
CN(CCOc1ccccc1)c1nc(-c2cccnc2)nn2cccc12 [Compound 97],531,3.16,,
CC(C)n1ncc2c(N(C)CCOc3ccccc3)nc(-c3cccnc3)nc21 [Compound 98],140,28.2,,
CCn1ncc2c(N(C)CCOc3ccccc3)nc(-c3cccnc3)nc21 [Compound 99],208,0.71,,
Cn1ncc2c(N3CC[C@@H](Oc4ccccc4)C3)nc(-c3cccnc3)nc21 [Compound 100],833,5.62,,
CN(CCN1CCc2ccccc2C1)c1nc(-c2cccnc2)nc2c1cnn2C [Compound 101],197,79.4,,
CN(CCOC1CCCCC1)c1nc(-c2cccnc2)nc2c1cnn2C [Compound 102],,25.1,,
CN(CCOc1ccc2c(c1)CCCC2)c1nc(-c2cccnc2)nc2c1cnn2C [Compound 103],371,3.16,,
CN(Cc1ccc2ccccc2n1)c1nc(-c2cccnc2)nc2c1cnn2C [Compound 104],425,6.31,,
CN(CC1CCc2ccccc2O1)c1nc(-c2cccnc2)nc2c1cnn2C (stereo not drawn) [Compound 105],662,6.31,,

# Continued, values first:
Emax [1] [%],AC50 [2] [µM],AC50 [3] [µM],Emax [3] [%],Compound
250,1.12,,,CCn1ncc2c(N(C)C[C@H]3COc4ccccc4O3)nc(-c3cccnc3)nc21 [Compound 106]
400,7.08,,,CCn1ncc2c(N(C)Cc3ccc4c(c3)OCO4)nc(-c3cccnc3)nc21 [Compound 108]
475,14.1,,,CN(Cc1ccc2ncccc2c1)c1nc(-c2cccnc2)nc2c1cnn2C [Compound 109]
750,7.94,,,CCn1ncc2c(N(C)CCOc3ccc(CN)cc3)nc(-c3cccnc3)nc21 [Compound 110]
675,0.5,,,CCn1ncc2c(N(C)CCOc3ccc(CNC(=O)CCCCCNC(=O)OC(C)(C)C)cc3)nc(-c3cccnc3)nc21 [Compound 111]
530,3.55,,,CCn1ncc2c(N(C)CCOc3ccc(CNC(=O)CCCCCN)cc3)nc(-c3cccnc3)nc21 [Compound 112]
,,12.6,210,Cn1ncc2c(N3CCC[C@H](C(=O)Nc4ccccc4)C3)nc(-c3cccnc3)nc21 [Compound 116]
,,14.1,310,Cn1ncc2c(N3CCC[C@@H](C(=O)Nc4ccccc4)C3)nc(-c3cccnc3)nc21 [Compound 117]
,,3.16,105,CCc1ccc(-c2nc(N(C)CCOc3ccc(C#N)cc3)c3cnn(CC)c3n2)cc1 [Compound 123]
,,6.31,480,CCc1ccc(-c2nc(N(C)CCOc3ccc(CN)cc3)c3cnn(CC)c3n2)cc1 [Compound 124]
,,6.31,610,CCn1ncc2c(N(C)CCOc3ccc(CNC(C)=O)cc3)nc(-c3cccnc3)nc21 [Compound 125]
,,0.2,150,CCCCCC(=O)NCc1ccc(OCCN(C)c2nc(-c3cccnc3)nc3c2cnn3CC)cc1 [Compound 126]
,,35.5,325,CN(CCC(=O)Nc1ccccc1)c1nc(-c2cccnc2)nc2ccccc12 [Compound 127]
,,44.7,275,CN(CCC(=O)Nc1ccccc1)c1nc(-c2cccnc2)nc2c1cnn2C [Compound 128]
,,1.67,,CN(C)c1ccc2c(-c3ccc(C(=O)NCCOCCOCCOCCOCCC(=O)NCCCCCC(=O)Nc4ccc(-c5nc(N(C)CCOc6ccccc6)c6ccccc6n5)cc4)cc3C(=O)[O-])c3ccc(=[N+](C)C)cc-3oc2c1 [Compound 135]
,,2,138,CCn1ncc2c(N(C)CCOc3ccc(C#N)cc3)nc(-c3ccsc3)nc21 [Compound 136]
,,2,200,CCn1ncc2c(N(C)CCOc3ccc(CN)cc3)nc(-c3ccsc3)nc21 [Compound 137]
,,10,875,CN(CCOc1ccc2nccnc2c1)c1nc(-c2cccnc2)nc2ccccc12 [Compound 138]
,,6.31,980,CCn1ncc2c(N(C)CCOc3ccc(CNC(=O)CNC(=O)OC(C)(C)C)cc3)nc(-c3cccnc3)nc21 [Compound 139]
,,2.82,980,CCn1ncc2c(N(C)CCOc3ccc(CNC(=O)CCNC(=O)OC(C)(C)C)cc3)nc(-c3cccnc3)nc21 [Compound 140]
,,0.5,800,CCn1ncc2c(N(C)CCOc3ccc(CNC(=O)CCCCNC(=O)OC(C)(C)C)cc3)nc(-c3cccnc3)nc21 [Compound 141]
,,3.16,700,CCc1cncc(-c2nc(N(C)CCOc3ccccc3)c3ccccc3n2)c1 [Compound 144]
,,1.6,185,CN(CCOc1ccccc1)c1nc(-c2cnc3ccccc3c2)nc2ccccc12 [Compound 145]
,,1.41,940,CCn1ncc2c(N(C)CCOc3ccc(CNC(=O)CCCNC(=O)OC(C)(C)C)cc3)nc(-c3cccnc3)nc21 [Compound 146]

# From patent US12291533B2, “Substituted fused pyrimidine compounds and uses thereof” (Northwestern University, priority 2017, dated 2025)
